Reference: a melting point compilation (Tetko et al.; mined from patent text by program, amines drawn as free bases though some values may be those of a salt)

Row | SMILES | melting point [°C]
1 | OC[C@@H](O)[C@@H](c1cccc(Br)c1)N1CCc2cccc(OCc3ccccc3)c21 | 61 to 66
2 | C/C(=C\c1ccccc1)CNc1cccc(-c2ccnc3c(C(=O)c4cccs4)cnn23)c1 | 74 to 76
3 | O=C(O)c1cccc(-c2cccc3sc(Cc4cccc(C(F)(F)F)c4)nc23)c1 | 152 to 153
4 | COC(=O)c1c[nH]c(Sc2ccc(Cl)cc2)c1 | 122 to 124
5 | NC(=NO)c1cccc2ccccc12 | 128 to 130
6 | Nc1nc(NCCN2CCN(C(c3ccccc3)c3ccccc3)CC2)nc(-c2cc(Cl)ccc2Cl)n1 | 192 to 193
7 | OCCc1nccn1CCCCc1ccc(OCc2coc(/C=C/c3ccc(Br)cc3)n2)cc1 | 149 to 150
8 | Cn1nc(N)nc1NCCSCc1cccc(CN2CCCCC2)c1 | 92 to 93
9 | Nc1ccc(-c2ncon2)cc1 | 97 to 100
10 | OCCN1C2C=C(c3ccc4ccccc4c3)CC1CC2 (configuration not stated) | 113 to 114
11 | Clc1nccnc1SN=Cc1ccccc1 | 93 to 94
12 | Nc1ncc(CCCCCc2cccc3ccccc23)c(N)n1 | 128 to 133
13 | CNC(=O)c1cnc(Cl)c(Cl)c1 | 134 to 138
14 | CC(=O)c1ccc2c(c1)C1(c3cc(C(C)=O)ccc3-2)c2cc(C(C)=O)ccc2-c2ccc(C(C)=O)cc21 | > 300
15 | CC(C)(Oc1ccc(Cl)cc1)C(C)(O)c1cccnc1 (configuration not stated) | 140 to 141
16 | O=C(O)Cc1oc2ccc(Cl)cc2c1-c1ccccc1 | 194 to 195
17 | Cc1nc2cc3c(cc2c(=O)[nH]1)OCCO3 | 275
18 | NCc1ccc(-n2c(-c3cccnc3N)nc3ccc(-c4ccccc4)nc32)cc1 | 215 to 218
19 | CC(C)Sc1cc2c(cc1Cl)N=C(CCl)NS2(=O)=O | 248 to 250
20 | Cc1nc2c(s1)-c1nc(N(C)c3cccc([N+](=O)[O-])c3)ncc1CC2 | 203 to 204
21 | COc1c(C)c(C(O)(c2cccnc2)C(C)C)c(OC)c2ccccc12 (configuration not stated) | 130 to 131

Row | SMILES | melting point [°C]
22 | Cc1nn2c(-c3cc(Cl)ccc3Cl)ccnc2c1C(N)=O | 234 to 236
23 | CCC(=O)c1cc(O)cc2cc(-c3ccc(O)cc3)oc12 | 257 to 260
24 | CN(C)CCc1[nH]c2ccccc2c1CSc1nccn1C | 152 to 154
25 | CCCCCCCCCCCCCCN(O)CCCCCCCCCCCCCC | 94 to 96
26 | O=C(O)c1cccc(CN2CCN(c3ccc(NC(=O)c4ccccc4-c4ccc(C(F)(F)F)cc4)cc3)CC2)c1 | 225 to 227
27 | Fc1ccc(C2C=C(C(F)(F)F)NC3=C2SCC=C3)cc1Br (configuration not stated) | 195 to 198
28 | NC(=O)c1nc(Cl)sc1Cl | 153
29 | Nc1cc(Cl)c(OCC(F)(F)F)cc1F | 40 to 41
30 | C=CCOc1c(Cl)cc(C2=NNC(=O)CC2)cc1Cl | 137
31 | C#Cc1ccc2c(c1)CCC2=O | 157
32 | CN(C)C(=O)Cn1c(-c2cccc(C(F)(F)F)c2)nc2cccnc21 | 136 to 138
33 | CSc1nc2cnc3ccccc3c2s1 | 116 to 119
34 | COCOc1cc(F)ccc1-c1cc(-c2cccc(C(=O)O)c2)c(C#N)c(NC(=O)c2ccco2)n1 | 254
35 | Cc1cc(C(F)(F)F)nn1CC(=O)N1CCC(c2nc(C3=NOC(c4cccc(-n5cncn5)c4)C3)cs2)CC1 (configuration not stated) | 83 to 85
36 | CCC1(CC)c2cc(-c3ccc4c(c3)C(CC)(CC)c3cc(N(c5ccccc5)c5ccccc5)ccc3-4)ccc2-c2ccc(-c3nc4ccccc4s3)cc21 | 217 to 218
37 | CCCCCCC(O)CNCC(O)CO (configuration not stated) | 85 to 90
38 | O=C1NC(c2ccccc2)(c2ccccc2)C(=O)N1COCc1ccccc1 | 151 to 152
39 | Cn1c(CO)cc2ccccc21 | 92.8
40 | C=C1C(=O)c2ccccc2OC1c1ccc(N(C)C)cc1 (configuration not stated) | 110 to 112
41 | CC12CCC3C(CCC4=CC(=O)CCC43C=O)C1CCC2=O (configuration not stated) | 126 to 129
42 | Ic1ccc(SSc2ccc(I)cc2)cc1 | 122 to 123

More lines, now with the values ahead:

Row | melting point [°C] | SMILES
43 | 160 | CC(C)N(CC(O)COc1ccccc1C(=O)Nc1cccc2[nH]ccc12)C(C)C (configuration not stated)
44 | 141 to 144 | Cc1ccc(S(=O)(=O)N2CCSC2=C(c2cccc(C)c2C)C(N)c2cccc(C)c2)cc1 (configuration not stated)
45 | 73 to 74 | O=C(CCCCCBr)NC1CCCCC1
46 | 256 to 257 | O=C(O)c1cc(=O)c2c([nH]1)-c1ccccc1SC2
47 | 72 to 73 | C=C(OCC)c1cc(N)c(OC)c(C(=O)OC)n1
48 | 186 to 187 | CC1=C(C(=O)O)N2C(=O)C(=NSc3ccc(C)cc3)C2SC1 (configuration not stated)
49 | 191 to 194 | CCOC(=O)C1=C(C)NC(C)=C(C(=O)OCC)C1c1csc2cc([N+](=O)[O-])ccc12
50 | 146 to 149 | COc1ccc2c(c1)CCC1C2=CCC2(C)C1CCC21OCCO1 (configuration not stated)
51 | 130 to 131 | COc1ccc(-n2nc3c(cc2=O)CCCc2sc(CO)cc2-3)cc1
52 | 95 to 97 | O=[N+]([O-])c1ccc(CCN2CCC(N3CCc4ccccc43)CC2)cc1
53 | 285 to 288 | CCCc1nn(C)c2c1N=C(c1cc(C(=O)O)ccc1OCC)NC2
54 | 105 | Cc1c(CC(=O)NCCCO)cc(-c2ccc(S(C)(=O)=O)cc2)n1-c1ccc(F)cc1
55 | 145 to 146 | CC(CF)c1ccc(NC(=O)N(C)C)cc1 (configuration not stated)
56 | 101 | Cc1ccc(NC(=O)c2ccc(C3OCC(SC(C)C(O)(Cn4cncn4)c4ccc(F)cc4F)CO3)cc2)cc1 (configuration not stated)
57 | 114 to 116 | O=C1CCC(c2ccccc2Cl)=NN1
58 | 92 to 96 | CNC1=NS(=O)(=O)N=C1NCCSCc1ccc(CN(C)C)o1
59 | 275 to 278 | CCC(=O)Oc1n[nH]c(=O)c2nc3cc(Cl)ccc3c(O)c12
60 | 128 to 130 | CN(C)c1cc(C(O)CS(C)(=O)=O)cc(N(C)C)c1 (configuration not stated)
61 | 80 to 81 | COC1=C(OC)C(=O)C2=C(CC(CCCCCCCCN3CCN(Cc4ccccc4)CC3)C2)C1=O
62 | 145 to 148 | COc1ccc(-c2c(Cl)c(CN3C(=O)CSC3=O)nc3sc4c(c23)CC[C@H](C(N)=O)C4)cc1

Row | melting point [°C] | SMILES
63 | 170 to 172 | COc1ccccc1C(=O)c1cccc(C(=O)O)c1
64 | 236 to 238 | Nc1ccc2cnn(-c3ccnc(N[C@H]4CC[C@H](O)CC4)n3)c2c1
65 | 110 to 112 | O=C1CCC(=O)N1Sc1ccccc1
66 | 94 | O=[N+]([O-])c1ccc(Oc2ccc(S(=O)(=O)NC3CCCCC3)cc2)cc1
67 | 230 to 232 | CS(=O)(=O)c1ccc([C@@H](CC2CCCC2)C(=O)Nc2nc3ccccc3[nH]2)cc1
68 | 119 to 121 | COC(=O)c1cccc2nc(N3CCCCC3)n(Cc3ccc(-c4ccccc4C#N)cc3)c12
69 | 92 to 94 | CC1CCc2ccc(OCC(O)CNC(C)(C)C)cc2O1 (configuration not stated)
70 | 137 | CC(C)(C)[Si](C)(C)Oc1ccc2c(c1)Oc1ccccc1C2=C1C2CC3CC(C2)CC1C3
71 | 223 to 226 | CCCCc1nn(-c2cc(NC(=O)CC)ccc2Cl)c(=O)n1Cc1ccc(-c2ccccc2S(=O)(=O)NC(=O)c2occ(Cl)c2Cl)cc1
72 | 86 to 88 | C=C(c1ccc(NC(=O)OC(C)(C)C)c(C)c1)C(F)(F)F
73 | 170 to 172 | CCCCC(=O)OC1(C(C)=O)C(C)CC2C3CCC4=CC(=O)C=CC4(C)C3(Cl)C(Cl)CC21C (configuration not stated)
74 | 268 to 271 | CCn1cc(C(=O)O)c(=O)c2cc(F)c(OC3CCN(C)CC3)cc21
75 | 122 to 124 | COc1cc2c(c(OC)c1)C1=C(CC2)C2=CCC(OC(C)=O)C2(C)CC1 (configuration not stated)
76 | 67.5 to 68 | C/C(=C\C(C)O)c1ccc(C2CCCCC2)cc1 (configuration not stated)
77 | 136 to 138 | COc1ccc(F)cc1C(C)(C)CC(O)(Cc1ccc(C(C)=NO)cc1Cl)C(F)(F)F (configuration not stated)
78 | 212 to 213 | COc1cc(OC)c2c(=O)[nH]c(-c3cc(C)c(OCCN4CCOCC4)c(C)c3)cc2n1
79 | 78 | CNC(=Nc1ccccc1N1CCCCC1)C(C)(C)C
80 | 68 to 69.5 | CC(=O)NCC(CCl)OC(C)=O (configuration not stated)
81 | 241 to 243 | O=C(O)c1ccc(C(=O)NOCc2ccc3ccccc3c2)cc1
82 | 169 | CCOC(=O)N1CCc2nc3c(Cl)cccc3c(C)c2CC1

Row | melting point [°C] | SMILES
83 | 39.5 to 40.5 | ClC1CCCOC1c1ccccc1 (configuration not stated)
84 | 128 to 130 | COc1cccc(OC)c1CN1C(=O)C2CCCN2c2ccccc21 (configuration not stated)
85 | 93 to 94.5 | Clc1cccc(N2CCN(CCCCOc3ccc4scnc4c3)CC2)c1Cl
86 | 55 to 57 | CC(C)OC(=O)C(C)Oc1ncn(-c2ccc(Cl)cc2Cl)n1 (configuration not stated)
87 | 211 | CC(=O)NC[C@H]1CN(c2ccc(N3C[C@H]4CN(C(=O)c5cc6ccccc6[nH]5)C[C@H]4C3)c(F)c2)C(=O)O1
88 | 195 to 196 | O=C(Nc1ccccc1)c1cc(NC(=S)Nc2cc(Cl)cc(Cl)c2)ccc1F
89 | 155 to 156 | Cc1c(NC(=O)c2cc3c(s2)CCCC3)cccc1-c1cn(C)c(=O)c(Nc2ccc(C3C(=O)N(C)CCN3C)cc2)n1 (configuration not stated)
90 | 169 to 172 | COc1cccc(NC(=O)c2cc(C)sc2Br)c1O
91 | 62 to 63 | CCOC(=O)c1sc(SC(C)C)c2c1CCc1nc(C)oc1-2
92 | 117 | CCOC(=O)C(=CNc1cc(OCc2ccccc2)c(OCc2ccccc2)cn1)C(=O)OCC
93 | 101 to 103 | O=C1c2ccccc2C(=O)N1CCCOC(Cl)Cl
94 | 71.6 to 72.5 | COc1cc(C=CC(=O)c2ccccc2F)cc(OC)c1
95 | 100 to 101 | CCCCCCC(=N)NC(=S)Nc1ccc(SC)cc1
96 | 193 to 195 | Cc1ccc(Sc2cncc3sc(C(N)=O)cc23)c(C)c1
97 | 94.5 to 95.5 | CCOC(=O)C(NC(=O)CNC(=O)OCc1ccccc1)C(=O)OCC
98 | 66 to 69 | COc1cccc2c(C(=O)c3ccc(OC4CCCCC4N4CCCCC4)cc3)c(-c3ccc(OCCN4CCCC4)cc3)sc12 (configuration not stated)
99 | 243 to 244 | COC(=O)C1Cc2c([nH]c3ccccc23)CN1C(=O)c1ccc(Cl)cc1 (configuration not stated)
100 | 118 to 119 | C[Si](C)(C)CCCCCCCNC(=O)n1cc(F)c(=O)[nH]c1=O
101 | 175 to 180 | COc1cccc(C2(CC(=O)O)CCCC2C(=O)O)c1 (configuration not stated)
102 | 131 to 135 | CCCCC1(Cn2ccnc2)SCCS1
